Results on 1 compound are retold here after US5047402A, “Cyclic amides as medicaments” (ICI Americas Inc., priority 1989, dated 1991).

The structures appear in SMILES notation.

The assay has as its target T1, LTD4 /E4 receptors (Cavia porcellus, UniProt Q2NNR5).
T1 construct: membrane fractions, containing the LTD4 /E4 receptors, are prepared from guinea-pig lung parenchyma; from tissue; host or cells: guinea-pig lung parenchyma membrane fractions
T1 sequence (Q2NNR5 1-340): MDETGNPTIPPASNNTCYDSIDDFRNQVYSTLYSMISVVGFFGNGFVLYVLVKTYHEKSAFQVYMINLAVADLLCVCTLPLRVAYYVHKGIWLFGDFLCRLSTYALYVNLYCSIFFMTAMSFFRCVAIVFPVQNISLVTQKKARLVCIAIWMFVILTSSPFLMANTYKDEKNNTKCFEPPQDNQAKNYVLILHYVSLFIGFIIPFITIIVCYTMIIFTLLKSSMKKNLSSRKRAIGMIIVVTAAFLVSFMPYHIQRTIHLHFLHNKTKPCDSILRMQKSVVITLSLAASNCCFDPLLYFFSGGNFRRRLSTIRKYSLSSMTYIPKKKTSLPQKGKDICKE
The assay can be described thus: receptor-ligand binding assay with 3H-LTD4 on guinea-pig lung parenchyma membrane fractions. The conditions noted are these: 1nM 3H-LTD4, 30 minutes at 22° C., Ki calculated from IC50 by the Cheng-Prusoff equation. The procedure: According to this procedure, membrane fractions, containing the LTD4 /E4 receptors, are prepared from guinea-pig lung parenchyma and incubated for 30 minutes at 22° C. with 1nM ^3 H-LTD4 in the absence or presence of tested antagonist. Specific binding, determined under conditions that prevent enzymatic metabolism of ^3 H-LTD4, is the net result of total ^3 H-LTD4 binding minus nonspecific binding determined in the presence of 1-2000 fold excess unlabelled LTD^4. Each assay is done in duplicate and results (Ki values) are typically a mean of several such determinations in individual receptor batches.
The % inhibition by a tested antagonist, relative to control binding (vehicle alone), is expressed as a fraction of log[antagonist] concentration (in molar units) and the half-maximal inhibition (IC50) determined by computerized non-linear least-square analysis. The binding constant (Ki) is then calculated from IC50 by the Cheng-Prusoff equation: [formula] where [L] is ^3 H-LTD4 concentraton and Kd is the affinity constant of LTD4 to this receptor, determined separately for each batch. (Biochem. Pharmacol. 22: 3099-3108, 1973).

The term Ki denotes the dissociation constant of the complex between target and ligand, obtained from inhibition or displacement. As to `CCCN1CCC(Cc2ccc3c(c2)c(Cc2ccc(C(=O)NS(=O)(=O)c4ccccc4C)cc2OC)cn3CCC)C1=O` (stereo not shown) [Example 1, 3-Methoxy-N-(2-methylphenylsulfonyl)-4-[1-propyl-5-(1-propyl-2-oxopyrrolidin-3-ylmethyl)indol-3-ylmethyl]benzamide], the Ki is 1 nM.
